The target of series [1] is human soluble guanylate cyclase alpha 1 and beta 1 subunits (sGC) (Homo sapiens (Human), UniProt Q02108+Q02153). Nature of the series: sGC cellular activator assay (cGMP, HTRF), in the presence and absence of 50% human serum. It counts as cell-based. Conditions: CHO cells stably expressing human sGC alpha 1/beta 1, preincubated with 40 microM ODQ; cGMP by HTRF; Table 2 does not state whether with or without 50% human serum. On the procedure: The sGC cellular activator assay is performed in the presence and absence of 50% human serum (HS) using Chinese hamster ovary cells that have been stably transfected to express the human soluble guanylate cyclase alpha 1 and beta 1 subunits (sGC). Cells are preincubated with 40 microM 1H-[1,2,4]oxadiazolo[4,3-a]quinoxalin-1-one (ODQ), an sGC inhibitor, for one h in buffer containing 0.1% bovine serum albumin and 3-isobutyl-1-methylxanthine (IBMX). Concentration response curves are prepared for test compounds in DMSO. An intermediate dilution of the compounds is performed in either buffer containing IBMX or type AB HS containing IBMX. Diluted compounds are added to cells and they are incubated at room temperature for thirty min. cGMP is measured using a CisBio homogeneous time resolved fluorescence kit and the EC50 is calculated for each compound.
Representative compounds of the present invention were tested for activity the above assay. Preferred compounds have an EC50 of <1,000 nM in the above assay and more preferred compounds have an EC50<200 nM.
Background: Time-resolved FRET reads energy transfer from a long-lived donor to a nearby acceptor.

A short description of series [2]: Human liver microsome (HLM) metabolic stability assay. It counts as in vitro ADME. Conditions: human liver microsomes. The protocol:
The 5 time point, high-throughput human liver microsome (HLM) metabolic stability assay is designed to determine in vitro compound metabolism. Compounds are incubated with HLMs at a concentration of 1 uM, at 37° C., for a total of 60 min. The percent of compound remaining at 5, 15, 30, and 60 min is used to calculate the t1/2 (min), CLint (mL/min/kg), CLh (mL/min/kg), and % Qh. The assay is based on a 96-well format and can accommodate up to 92 compounds per plate (n=1).
Using the 96-well multi-channel head, the Biomek FX, equipped with a Peltier heating block/shaker, is programmed to accomplish the following steps: • 1. Pipette 175 uL of 1.15 mg/mL microsomes into each of the 96 conical inserts (Analytical Sales and Products, catalog number 96PL05) that fit into the plate of the Peltier heating block/shaker (the incubation plate) • 2. Add 5 uL of compounds from the assay plate to the microsomes and shake the mixture at 600 rpm at 42.1° C. for 10 min (a setting of 42.1° C. on the Peltier is required for the samples to incubate at 37° C.) • 3. After 10 min, prompt the user to add the NADPH plate to the deck and add 20 uL from the NADPH plate to the incubation plate to start the reaction • 4. Add 215 uL of 100%, cold acetonitrile containing an internal standard(s) to a 0 minute, 5 minute, 15 minute, 30 minute, and 60 minute “quench” plate • 5. At 0 min, 5 min, 15 min, 30 min, and 60 min into the incubation, aspirate 12 uL from the incubation mixture and add it to the quench solution to stop the reaction • 6. Add 185 uL HPLC grade water to each well of the 0, 5, 15, 30 and 60 minute quench plates to dilute compounds to the appropriate concentration for the mass spectrometer
After all time points are collected, the quench plates are sealed with 96-well pierceable plate mats or heat sealing foil and centrifuged at 3000 rpm for 15 min to pellet the microsomes.
The plates are analyzed using LC/MS/MS with electron spray ionization (ESI) and the previously determined MRM transitions. The LC method includes the following parameters:
Using an Excel template in Activitybase, the peak areas corresponding to 5, 15, 30 and 60 min are compared to the peak area at 0 min to calculate the percent of remaining compound using the following equation:
Percent compound remaining=(AUC at Time t min/AUC at Time 0 min)×100 where t=0, 5, 15, 30 or 60 min.
Time (min) is plotted against the natural logarithm (Ln) of the percent compound remaining to determine the slope. The slope is used to calculate t1/2 (min) using the equation, t1/2=0.693/slope.
Clh, Hepatic clearance • Hepatic flow*f(u)*Clint/(hepatic flow+f(u)*Clint)
Qh, % Hepatic blood flow • (Clh/Hepatic flow)*100
Preferred compounds have % Qh values of less than 24.
For orientation: Liver microsomes are a subcellular fraction often used to study metabolism.

Another series is described as follows: physchem. Conditions: kinetic from dmso stock.
Setting [3] is: pH 2.2, aqueous buffer, Solubility (pH 2.2).
The mark [4] stands for this setting: pH 4.5, aqueous buffer, Solubility (pH 4.5).
Setting [5] is: pH 6.8, aqueous buffer, Solubility (pH 6.8).

Values after ≈ are worked out from the molar mass of the structure shown.

Chain of human soluble guanylate cyclase alpha 1 and beta 1 subunits (sGC) (Q02108 whole entry partner): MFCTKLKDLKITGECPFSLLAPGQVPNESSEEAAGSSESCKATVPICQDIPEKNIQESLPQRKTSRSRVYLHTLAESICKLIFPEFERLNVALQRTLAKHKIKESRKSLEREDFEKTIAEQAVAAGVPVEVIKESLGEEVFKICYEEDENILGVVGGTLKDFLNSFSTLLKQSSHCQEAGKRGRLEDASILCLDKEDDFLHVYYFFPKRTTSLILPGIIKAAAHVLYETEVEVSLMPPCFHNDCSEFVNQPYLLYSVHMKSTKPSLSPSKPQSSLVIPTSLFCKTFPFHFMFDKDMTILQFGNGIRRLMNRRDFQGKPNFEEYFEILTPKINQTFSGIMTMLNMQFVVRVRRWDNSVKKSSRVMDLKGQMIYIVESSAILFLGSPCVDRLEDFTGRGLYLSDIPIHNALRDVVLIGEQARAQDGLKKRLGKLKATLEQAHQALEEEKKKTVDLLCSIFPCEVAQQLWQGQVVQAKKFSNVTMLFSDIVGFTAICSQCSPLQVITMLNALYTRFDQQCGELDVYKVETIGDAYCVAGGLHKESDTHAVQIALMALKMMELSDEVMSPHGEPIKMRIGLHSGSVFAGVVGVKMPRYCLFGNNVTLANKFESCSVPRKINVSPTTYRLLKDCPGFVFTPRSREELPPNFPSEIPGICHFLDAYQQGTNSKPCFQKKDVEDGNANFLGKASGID
Chain of human soluble guanylate cyclase alpha 1 and beta 1 subunits (sGC) (Q02153 whole entry): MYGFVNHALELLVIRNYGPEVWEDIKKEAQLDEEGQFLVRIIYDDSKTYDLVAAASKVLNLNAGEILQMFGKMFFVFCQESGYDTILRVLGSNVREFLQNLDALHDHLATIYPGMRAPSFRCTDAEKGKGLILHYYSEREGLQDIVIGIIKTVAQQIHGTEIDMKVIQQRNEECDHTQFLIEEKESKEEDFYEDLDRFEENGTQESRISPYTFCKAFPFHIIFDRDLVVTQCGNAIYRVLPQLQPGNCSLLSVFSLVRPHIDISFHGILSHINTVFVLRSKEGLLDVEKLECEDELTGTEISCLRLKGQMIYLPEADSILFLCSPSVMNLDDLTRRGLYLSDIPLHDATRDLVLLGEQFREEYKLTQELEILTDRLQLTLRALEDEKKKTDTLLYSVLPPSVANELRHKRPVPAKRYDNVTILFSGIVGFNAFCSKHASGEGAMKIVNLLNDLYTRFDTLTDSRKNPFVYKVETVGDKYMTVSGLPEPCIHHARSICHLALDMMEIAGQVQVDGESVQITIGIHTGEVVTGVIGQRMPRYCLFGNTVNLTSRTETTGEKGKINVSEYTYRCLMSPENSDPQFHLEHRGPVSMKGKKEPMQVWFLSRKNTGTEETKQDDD

Usually EC50 stands for the midpoint of the concentration-response curve. A lower EC50 goes with a more potent agent. The term solubility denotes how much of the substance goes into solution per volume. Lower therefore signals a poorly soluble substance. In series [1], `Cc1cccc(-c2csc(N3C[C@@H]4C[C@]4(C(=O)O)C3)n2)c1OCc1ccc2c(c1C)CCN(C1CCOCC1)CC2` [Compound 144] displayed an EC50 of 10 nM. In series [2], the “Metabolic stability (Qh %), % hepatic blood flow” value (shortened to “Metabolic stability (Qh %)”) is less than 24%. The solubility at 24 h in “physchem” (setting [3]) stood at 110 µg/mL (≈ 192 µM); in “physchem” (setting [4]), 74 µg/mL (≈ 129 µM); in the series “physchem” (setting [5]), 62 µg/mL (≈ 108 µM).
On to `COC[C@H]1N(c2nc(-c3cccc(C)c3OCc3cc(C)c4c(c3)CCN(C3CCOCC3)C4)cs2)C[C@@H]2C[C@@]21C(=O)O` [Compound 162], for which it took 4 nM to reach a half-maximal effect in series [1] (EC50). Further, in series [2], the “Metabolic stability (Qh %)” value was determined as 39%. In addition, the values for the solubility at 24 h in the series “physchem” (setting [3]), in “physchem” (setting [4]) and in the series “physchem” (setting [5]) were 120 µg/mL (≈ 199 µM), 82 µg/mL (≈ 136 µM) and 75 µg/mL (≈ 124 µM), respectively.
In the same order, the values of `COC[C@H]1N(c2cccc(-c3cccc(C)c3OCc3ccc4c(c3C)CCN(C3COC3)C4)n2)C[C@@H]2C[C@@]21C(=O)O` [Compound 47] are 17 nM, less than 24%, 110 µg/mL (≈ 193 µM), 95 µg/mL (≈ 167 µM) and 84 µg/mL (≈ 147 µM).
Compound `COC[C@H]1N(c2cccc(-c3cccc(C)c3OCc3ccc4c(c3)[C@@H](C)CN(C3CCOCC3)CC4)n2)C[C@@H]2C[C@@]21C(=O)O` [Compound 225] came in with an EC50 in series [1] of 5 nM. Also, in series [2], the “Metabolic stability (Qh %)” value was 25%. The solubility at 24 h was 136 µg/mL (≈ 222 µM) in the series “physchem” (setting [3]), 135 µg/mL (≈ 220 µM) in the series “physchem” (setting [4]) and 129 µg/mL (≈ 211 µM) in the series “physchem” (setting [5]).
In the same order, the values of `CO[C@H]1CN(c2nc(-c3cc(C)ccc3OCc3cc(C)c4c(c3F)CCN(C3CCOCC3)C4)cs2)CC[C@H]1C(=O)O` [Compound 253] are 9 nM, less than 24%, 127 µg/mL (≈ 208 µM), 7.7 µg/mL (≈ 12.6 µM) and 1.1 µg/mL (≈ 1.8 µM).
On to `CO[C@H]1CN(c2nc(-c3cccc(C)c3OCc3cc(C)c4c(c3F)CCN(C3CCOCC3)C4)cs2)CC[C@H]1C(=O)O` [Compound 242], for which the EC50 in series [1] came to 4 nM. Moreover, in series [2], the “Metabolic stability (Qh %)” value was less than 24%. The figures for the solubility at 24 h in the series “physchem” (setting [3]), in the series “physchem” (setting [4]) and in “physchem” (setting [5]) were 126 µg/mL (≈ 206 µM), 116 µg/mL (≈ 191 µM) and 115 µg/mL (≈ 189 µM), respectively.
The matching figures for `CO[C@H]1CN(c2nc(-c3cccc(C)c3OCc3ccc4c(c3)[C@@H](C)CN(C3CCOCC3)CC4)cs2)CC[C@H]1C(=O)O` [Compound 312]: 3 nM, less than 24%, 155 µg/mL (≈ 256 µM), 143 µg/mL (≈ 236 µM) and 146 µg/mL (≈ 242 µM).
In the same order, the values of `Cc1ccc(OCc2ccc3c(c2C)CCN(CC2COCCO2)CC3)c(-c2csc(N3CC[C@@]4(C(=O)O)C[C@H]4C3)n2)c1` (some centres unmarked) [Compound 132] are 22 nM, 46%, 110 µg/mL (≈ 182 µM), 23 µg/mL (≈ 38.1 µM) and 3.1 µg/mL (≈ 5.13 µM).
The matching figures for `Cc1c(COc2ccccc2-c2ccnc(N3C[C@@H]4C[C@]4(C(=O)O)C3)n2)ccc2c1CCN(C1CCOCC1)C2` [Compound 188]: 150 nM, less than 24%, 110 µg/mL (≈ 203 µM), 50 µg/mL (≈ 92.5 µM) and 54 µg/mL (≈ 99.9 µM).
The compound `CO[C@H]1CN(c2cccc(-c3cc(C)ccc3OCc3cc(C)c4c(c3)CCN(C3CCOCC3)C4)n2)CC[C@H]1C(=O)O` [Compound 72] registered an EC50 in series [1] of 64 nM. Further, the “Metabolic stability (Qh %)” value in series [2] is less than 24%. For the same compound, the values for the solubility at 24 h in the series “physchem” (setting [3]), in “physchem” (setting [4]) and in the series “physchem” (setting [5]) were 120 µg/mL (≈ 205 µM), 100 µg/mL (≈ 171 µM) and 74 µg/mL (≈ 126 µM), respectively.
`COCc1cc(COc2c(C)cccc2-c2cccc(N3C[C@@H]4C[C@]4(C(=O)O)[C@H]3COC)n2)cc2c1CN(C1CCOCC1)CC2` [Compound 279]: the EC50 in series [1] amounted to 65 nM. Moreover, the “Metabolic stability (Qh %)” value in series [2] is listed as less than 24%. Besides, the solubility at 24 h in the series “physchem” (setting [3]) was determined as 128 µg/mL (≈ 203 µM); in “physchem” (setting [4]), 100 µg/mL (≈ 160 µM); in “physchem” (setting [5]), 82.8 µg/mL (≈ 132 µM).
For `CO[C@@H]1CN(c2cccc(-c3cc(C)ccc3OCc3cc(C)c4c(c3)CCN(C3CCOC3)C4)n2)CC[C@@H]1C(=O)O` (some centres unmarked) [Compound 77], the EC50 in series [1] is 71 nM. The “Metabolic stability (Qh %)” value in series [2] was less than 24%. For the same compound, the solubility at 24 h in the series “physchem” (setting [3]) was found to be 110 µg/mL (≈ 192 µM); in “physchem” (setting [4]) it was 95 µg/mL (≈ 166 µM); in the series “physchem” (setting [5]), 64 µg/mL (≈ 112 µM).
In the same order, the values of `CO[C@@H]1CN(c2nc(-c3cccc(C)c3OCc3cc(C)c4c(c3)CCN(CC3COCCO3)C4)cs2)CC[C@@H]1C(=O)O` (some centres unmarked) [Compound 175] are 155 nM, less than 24%, 140 µg/mL (≈ 230 µM), 100 µg/mL (≈ 165 µM) and 95 µg/mL (≈ 156 µM).
`Cc1c(COc2ccccc2-c2cccc(N3CC[C@@]4(C(=O)O)C[C@H]4C3)n2)ccc2c1CCN([C@H]1CCOC1)C2` [Compound 7]: the EC50 in series [1] was 11 nM. The “Metabolic stability (Qh %)” value in series [2] is listed as 45%. In addition, the solubility at 24 h in “physchem” (setting [3]) is 150 µg/mL (≈ 278 µM); in the series “physchem” (setting [4]), 120 µg/mL (≈ 222 µM); in “physchem” (setting [5]), 59 µg/mL (≈ 109 µM).
The matching figures for `Cc1cccc(-c2csc(N3C[C@@H]4C[C@]4(C(=O)O)C3)n2)c1OCc1ccc2c(c1C)CCN(C1CCOCC1)C2` [Compound 136]: 18 nM, less than 24%, 110 µg/mL (≈ 197 µM), 76 µg/mL (≈ 136 µM) and 62 µg/mL (≈ 111 µM).
In the same order, the values of `COC[C@H]1N(c2cccc(-c3cccc(C)c3OCc3ccc4c(c3F)CCN(C3CCOCC3)CC4)n2)C[C@@H]2C[C@@]21C(=O)O` [Compound 262] are 3 nM, 25%, 133 µg/mL (≈ 215 µM), 94.9 µg/mL (≈ 154 µM) and 67.4 µg/mL (≈ 109 µM).
In turn, `Cc1ccc(OCc2ccc3c(c2)CCN(C2CCOCC2)CC3)c(-c2csc(N3C[C@@H]4C[C@]4(C(=O)O)C3)n2)c1` [Compound 147] displayed an EC50 in series [1] of 49 nM. Moreover, the “Metabolic stability (Qh %)” value in series [2] is less than 24%. For the same compound, the solubility at 24 h is greater than 140 µg/mL in the series “physchem” (setting [3]), less than 0.1 µg/mL in “physchem” (setting [4]) and less than 0.1 µg/mL in the series “physchem” (setting [5]).
For the compound `Cc1ccc(OCc2ccc3c(c2C)CCN(C2CCOCC2)C3)c(-c2cccc(N3C[C@@H]4C[C@]4(C(=O)O)C3)n2)c1` [Compound 35], the concentration for a half-maximal effect (EC50) in series [1] stood at 45 nM. In addition, in series [2], the “Metabolic stability (Qh %)” value was less than 24%. Besides, the solubility at 24 h in the series “physchem” (setting [3]) amounted to 100 µg/mL (≈ 181 µM); in the series “physchem” (setting [4]) it was 93 µg/mL (≈ 168 µM); in the series “physchem” (setting [5]), 6.4 µg/mL (≈ 11.6 µM).
Consider `COc1cc(COc2ccc(C)cc2-c2csc(N3CC[C@@H](C(=O)O)[C@@H](OC)C3)n2)cc2c1CN(C1CCOCC1)CC2` [Compound 254], for which, in series [1], the midpoint of the response, the EC50, lay at 14 nM. Moreover, the “Metabolic stability (Qh %)” value in series [2] stood at 26%. Besides, the solubility at 24 h was found to be 118 µg/mL (≈ 194 µM) in the series “physchem” (setting [3]), 67.5 µg/mL (≈ 111 µM) in the series “physchem” (setting [4]) and 2.9 µg/mL (≈ 4.77 µM) in the series “physchem” (setting [5]).

For the origin of these results see patent US9353090B2, “Heterocyclic carboxylic acids as activators of soluble guanylate cyclase” (Boehringer Ingelheim International GmbH, priority 2014, dated 2016).
